SMILES strings stand for the structures.

The values below come from article PMC3763546, “Structural insight into negative DNA supercoiling by DNA gyrase, a bacterial type 2A DNA topoisomerase” (Nucleic Acids Research, 2013).

This assay deals with T1, GyrBA-fus (full-length T. thermophilus DNA gyrase GyrB-GyrA fusion) (Thermus thermophilus, UniProt Q5SHZ4+Q5SIL4).
T1 construct: full-length GyrB fused at its C-terminus to the N-terminus of full-length GyrA by a G-D-L linker; N-terminal His10 tag with PreScission site; E. coli BL21(DE3); dimer (A2B2 equivalent) of 320377 Da
Kind of assay: native ESI mass spectrometry. Type of assay: binding. The conditions noted are these: 200 mM ammonium acetate pH 7.5; two ADPNP per fusion dimer; ATPase domain (GyrB) site; also in the holoenzyme cryo-EM sample (16.9 Å).

As for `Nc1ncnc2c1ncn2[C@@H]1O[C@H](COP(=O)(O)OP(=O)(O)NP(=O)(O)O)[C@@H](O)[C@H]1O` [ADPNP], the “native ESI mass spectrometry” value was “showing the addition of two ADPNP molecules per GyrBA-fus dimer”.
